Results as given in ChEMBL document CHEMBL4257449, “New N-(2-phenyl-4-oxo-1,3-thiazolidin-3-yl)-1,2-benzothiazole-3-carboxamides and acetamides as antimicrobial agents” (2017).
≈ marks a conversion by molar mass, not a printed value.

Columns and labels:
Talaromyces funiculosus [1] = test: Fungicidal activity against Penicillium funiculosum ATCC 36839 incubated for 72 hrs followed by serial sub-cultivation for 72 hrs and measured after 72 hrs by serial dilution method; format: functional
Pseudomonas aeruginosa [2] = test: Bactericidal activity against Pseudomonas aeruginosa ATCC 27853 incubated for 24 hrs followed by serial sub-cultivation and measured after 24 hrs by microdilution method; format: functional
Aspergillus fumigatus [3] = test: Antifungal activity against Aspergillus fumigatus after 72 hrs by serial dilution method; format: functional
Trichoderma viride [4] = test: Antifungal activity against Trichoderma viride IAM 5061 after 72 hrs by serial dilution method; format: functional; settings: IAM 5061, 72 h
Aspergillus fumigatus [5] = test: Fungicidal activity against Aspergillus fumigatus incubated for 72 hrs followed by serial sub-cultivation for 72 hrs and measured after 72 hrs by serial dilution method; format: functional
Salmonella typhimurium [6] = test: Antibacterial activity against Salmonella typhimurium ATCC 13311 after 24 hrs by microdilution method; format: functional, Salmonella enterica subsp. enterica serovar Typhimurium; settings: Salmonella enterica, ATCC 13311, 24 h
Listeria monocytogenes [7] = test: Bactericidal activity against Listeria monocytogenes NCTC 7973 incubated for 24 hrs followed by serial sub-cultivation and measured after 24 hrs by microdilution method; format: functional
Staphylococcus aureus [8] = test: Bactericidal activity against Staphylococcus aureus ATCC 6538 incubated for 24 hrs followed by serial sub-cultivation and measured after 24 hrs by microdilution method; format: functional
Talaromyces funiculosus [9] = test: Antifungal activity against Penicillium funiculosum ATCC 36839 after 72 hrs by serial dilution method; format: functional; settings: ATCC 36839, 72 h
Aspergillus ochraceus [10] = test: Fungicidal activity against Aspergillus ochraceus ATCC 12066 incubated for 72 hrs followed by serial sub-cultivation for 72 hrs and measured after 72 hrs by serial dilution method; format: functional
Enterobacter cloacae [11] = test: Antibacterial activity against Enterobacter cloacae after 24 hrs by microdilution method; format: functional
Escherichia coli [12] = test: Antibacterial activity against Escherichia coli ATCC 35210 after 24 hrs by microdilution method; format: functional; settings: ATCC 35210, 24 h
Aspergillus versicolor [13] = test: Antifungal activity against Aspergillus versicolor ATCC 11730 after 72 hrs by serial dilution method; format: functional; settings: ATCC 11730, 72 h
Salmonella typhimurium [14] = test: Bactericidal activity against Salmonella typhimurium ATCC 13311 incubated for 24 hrs followed by serial sub-cultivation and measured after 24 hrs by microdilution method; format: functional, Salmonella enterica subsp. enterica serovar Typhimurium
Penicillium ochrochloron [15] = test: Fungicidal activity against Penicillium ochrochloron ATCC 9112 incubated for 72 hrs followed by serial sub-cultivation for 72 hrs and measured after 72 hrs by serial dilution method; format: functional
Pseudomonas aeruginosa [16] = test: Antibacterial activity against Pseudomonas aeruginosa ATCC 27853 after 24 hrs by microdilution method; format: functional; settings: ATCC 27853, 24 h
Candida albicans [17] = test: Fungicidal activity against Candida albicans incubated for 72 hrs followed by serial sub-cultivation for 72 hrs and measured after 72 hrs by serial dilution method; format: functional
Trichoderma viride [18] = test: Fungicidal activity against Trichoderma viride IAM 5061 incubated for 72 hrs followed by serial sub-cultivation for 72 hrs and measured after 72 hrs by serial dilution method; format: functional
Aspergillus niger [19] = test: Antifungal activity against Aspergillus niger ATCC 6275 after 72 hrs by serial dilution method; format: functional; settings: ATCC 6275, 72 h
Penicillium ochrochloron [20] = test: Antifungal activity against Penicillium ochrochloron ATCC 9112 after 72 hrs by serial dilution method; format: functional; settings: ATCC 9112, 72 h
Aspergillus ochraceus [21] = test: Antifungal activity against Aspergillus ochraceus ATCC 12066 after 72 hrs by serial dilution method; format: functional; settings: ATCC 12066, 72 h
Escherichia coli [22] = test: Bactericidal activity against Escherichia coli ATCC 35210 incubated for 24 hrs followed by serial sub-cultivation and measured after 24 hrs by microdilution method; format: functional
Bacillus cereus [23] = test: Antibacterial activity against Bacillus cereus after 24 hrs by microdilution method; format: functional
Aspergillus versicolor [24] = test: Fungicidal activity against Aspergillus versicolor ATCC 11730 incubated for 72 hrs followed by serial sub-cultivation for 72 hrs and measured after 72 hrs by serial dilution method; format: functional
Micrococcus flavus [25] = test: Antibacterial activity against Micrococcus flavus ATCC 10240 after 24 hrs by microdilution method; format: functional; settings: ATCC 10240, 24 h
Listeria monocytogenes [26] = test: Antibacterial activity against Listeria monocytogenes NCTC 7973 after 24 hrs by microdilution method; format: functional; settings: NCTC 7973, 24 h
Aspergillus niger [27] = test: Fungicidal activity against Aspergillus niger ATCC 6275 incubated for 72 hrs followed by serial sub-cultivation for 72 hrs and measured after 72 hrs by serial dilution method; format: functional
Enterobacter cloacae [28] = test: Bactericidal activity against Enterobacter cloacae incubated for 24 hrs followed by serial sub-cultivation and measured after 24 hrs by microdilution method; format: functional
Candida albicans [29] = test: Antifungal activity against Candida albicans after 72 hrs by serial dilution method; format: functional
Micrococcus flavus [30] = test: Bactericidal activity against Micrococcus flavus ATCC 10240 incubated for 24 hrs followed by serial sub-cultivation and measured after 24 hrs by microdilution method; format: functional
Staphylococcus aureus [31] = test: Antibacterial activity against Staphylococcus aureus ATCC 6538 after 24 hrs by microdilution method; format: functional; settings: ATCC 6538, 24 h
Bacillus cereus [32] = test: Bactericidal activity against Bacillus cereus incubated for 24 hrs followed by serial sub-cultivation and measured after 24 hrs by microdilution method; format: functional

Row | SMILES | MFC99.5 (Talaromyces funiculosus [1]) [×10⁻² umol/ml] | MBC99.5 (Pseudomonas aeruginosa [2]) [×10⁻² umol/ml] | MIC (Aspergillus fumigatus [3]) [µM] | MIC (Trichoderma viride [4]) [µM] | MFC99.5 (Aspergillus fumigatus [5]) [×10⁻² umol/ml] | MIC (Salmonella typhimurium [6]) [µM] | MBC99.5 (Listeria monocytogenes [7]) [×10⁻² umol/ml] | MBC99.5 (Staphylococcus aureus [8]) [×10⁻² umol/ml] | MIC (Talaromyces funiculosus [9]) [µM] | MFC99.5 (Aspergillus ochraceus [10]) [×10⁻² umol/ml] | MIC (Enterobacter cloacae [11]) [µM] | MIC (Escherichia coli [12]) [µM] | MIC (Aspergillus versicolor [13]) [µM] | MBC99.5 (Salmonella typhimurium [14]) [×10⁻² umol/ml] | MFC99.5 (Penicillium ochrochloron [15]) [×10⁻² umol/ml] | MIC (Pseudomonas aeruginosa [16]) [µM] | MFC99.5 (Candida albicans [17]) [×10⁻² umol/ml] | MFC99.5 (Trichoderma viride [18]) [×10⁻² umol/ml] | MIC (Aspergillus niger [19]) [µM] | MIC (Penicillium ochrochloron [20]) [µM] | also measured
1 | O=C(NN1C(=O)CSC1c1ccc(F)cc1)c1nsc2ccccc12 (stereo not drawn) | 53.6 | 21.4 | 107 (≈ 40 µg/mL) | 402 (≈ 150 µg/mL) | 21.4 | 107 (≈ 40 µg/mL) | 40.2 | 21.4 | 214 (≈ 79.9 µg/mL) | 80.4 | 107 (≈ 40 µg/mL) | 107 (≈ 40 µg/mL) | 402 (≈ 150 µg/mL) | 21.4 | 80.4 | 107 (≈ 40 µg/mL) | 10.7 | 80.4 | 402 (≈ 150 µg/mL) | 402 (≈ 150 µg/mL) | MIC (Aspergillus ochraceus [21]): 402 µM (≈ 150 µg/mL); MBC99.5 (Escherichia coli [22]): 21.4 ×10⁻² umol/ml; MIC (Bacillus cereus [23]): 214 µM (≈ 79.9 µg/mL); MFC99.5 (Aspergillus versicolor [24]): 80.4 ×10⁻² umol/ml; MIC (Micrococcus flavus [25]): 214 µM (≈ 79.9 µg/mL); MIC (Listeria monocytogenes [26]): 214 µM (≈ 79.9 µg/mL); MFC99.5 (Aspergillus niger [27]): 80.4 ×10⁻² umol/ml; MBC99.5 (Enterobacter cloacae [28]): 21.4 ×10⁻² umol/ml; MIC (Candida albicans [29]): 80 µM (≈ 29.9 µg/mL); MBC99.5 (Micrococcus flavus [30]): 40.2 ×10⁻² umol/ml; MIC (Staphylococcus aureus [31]): 107 µM (≈ 40 µg/mL); MBC99.5 (Bacillus cereus [32]): 40.2 ×10⁻² umol/ml
2 | O=C(NN1C(=O)CSC1c1ccccc1)c1nsc2ccccc12 (stereo not drawn) | 42.2 | 42.2 | 112 (≈ 39.8 µg/mL) | 56 (≈ 19.9 µg/mL) | 22.5 | 225 (≈ 80 µg/mL) | 42.2 | 42.2 | 225 (≈ 80 µg/mL) | 5.6 | 112 (≈ 39.8 µg/mL) | 112 (≈ 39.8 µg/mL) | 225 (≈ 80 µg/mL) | 42.2 | 22.5 | 225 (≈ 80 µg/mL) | 42.2 | 11.2 | 112 (≈ 39.8 µg/mL) | 112 (≈ 39.8 µg/mL) | MIC (Aspergillus ochraceus [21]): 28 µM (≈ 9.95 µg/mL); MBC99.5 (Escherichia coli [22]): 22.5 ×10⁻² umol/ml; MIC (Bacillus cereus [23]): 225 µM (≈ 80 µg/mL); MFC99.5 (Aspergillus versicolor [24]): 42.2 ×10⁻² umol/ml; MIC (Micrococcus flavus [25]): 225 µM (≈ 80 µg/mL); MIC (Listeria monocytogenes [26]): 225 µM (≈ 80 µg/mL); MFC99.5 (Aspergillus niger [27]): 22.5 ×10⁻² umol/ml; MBC99.5 (Enterobacter cloacae [28]): 22.5 ×10⁻² umol/ml; MIC (Candida albicans [29]): 253 µM (≈ 89.9 µg/mL); MBC99.5 (Micrococcus flavus [30]): 42.2 ×10⁻² umol/ml; MIC (Staphylococcus aureus [31]): 225 µM (≈ 80 µg/mL); MBC99.5 (Bacillus cereus [32]): 42.2 ×10⁻² umol/ml
3 | CC(=O)N1CCN(c2ccc(OCC3COC(Cn4ccnc4)(c4ccc(Cl)cc4Cl)O3)cc2)CC1 (stereo not drawn) [KETOCONAZOLE] | 95 |  | 380 (≈ 202 µg/mL) | 1900 (≈ 1010 µg/mL) | 95 |  |  |  | 380 (≈ 202 µg/mL) | 38 |  |  | 380 (≈ 202 µg/mL) |  | 285 |  | 56 | 285 | 380 (≈ 202 µg/mL) | 1900 (≈ 1010 µg/mL) | MIC (Aspergillus ochraceus [21]): 280 µM (≈ 149 µg/mL); MFC99.5 (Aspergillus versicolor [24]): 95 ×10⁻² umol/ml; MFC99.5 (Aspergillus niger [27]): 95 ×10⁻² umol/ml; MIC (Candida albicans [29]): 380 µM (≈ 202 µg/mL)
4 | CN[C@@H]1[C@H](O[C@H]2[C@H](O[C@H]3[C@H](O)[C@@H](O)[C@H](N=C(N)N)[C@@H](O)[C@@H]3N=C(N)N)O[C@@H](C)[C@]2(O)C=O)O[C@@H](CO)[C@H](O)[C@H]1O [STREPTOMYCIN] |  | 34.4 |  |  |  | 172 (≈ 100 µg/mL) | 51.6 | 34.4 |  |  | 43 (≈ 25 µg/mL) | 172 (≈ 100 µg/mL) |  | 34.4 |  | 172 (≈ 100 µg/mL) |  |  |  |  | MBC99.5 (Escherichia coli [22]): 34.4 ×10⁻² umol/ml; MIC (Bacillus cereus [23]): 43 µM (≈ 25 µg/mL); MIC (Micrococcus flavus [25]): 86 µM (≈ 50 µg/mL); MIC (Listeria monocytogenes [26]): 258 µM (≈ 150 µg/mL); MBC99.5 (Enterobacter cloacae [28]): 8.6 ×10⁻² umol/ml; MBC99.5 (Micrococcus flavus [30]): 17.2 ×10⁻² umol/ml; MIC (Staphylococcus aureus [31]): 172 µM (≈ 100 µg/mL); MBC99.5 (Bacillus cereus [32]): 8.6 ×10⁻² umol/ml
5 | c1ccc(-c2ccc(C(c3ccccc3)n3ccnc3)cc2)cc1 (stereo not drawn) [BIFONAZOLE] | 80 |  | 480 (≈ 149 µg/mL) | 640 (≈ 199 µg/mL) | 64 |  |  |  | 640 (≈ 199 µg/mL) | 80 |  |  | 320 (≈ 99.3 µg/mL) |  | 80.5 |  | 64 | 80 | 480 (≈ 149 µg/mL) | 640 (≈ 199 µg/mL) | MIC (Aspergillus ochraceus [21]): 480 µM (≈ 149 µg/mL); MFC99.5 (Aspergillus versicolor [24]): 64 ×10⁻² umol/ml; MFC99.5 (Aspergillus niger [27]): 64 ×10⁻² umol/ml; MIC (Candida albicans [29]): 320 µM (≈ 99.3 µg/mL)
6 | CC1(C)S[C@@H]2[C@H](NC(=O)[C@H](N)c3ccccc3)C(=O)N2[C@H]1C(=O)O [AMPICILLIN] |  | 124 |  |  |  | 248 (≈ 86.7 µg/mL) | 74.4 | 37.2 |  |  | 248 (≈ 86.7 µg/mL) | 372 (≈ 130 µg/mL) |  | 49.2 |  | 744 (≈ 260 µg/mL) |  |  |  |  | MBC99.5 (Escherichia coli [22]): 49.2 ×10⁻² umol/ml; MIC (Bacillus cereus [23]): 248 µM (≈ 86.7 µg/mL); MIC (Micrococcus flavus [25]): 248 µM (≈ 86.7 µg/mL); MIC (Listeria monocytogenes [26]): 372 µM (≈ 130 µg/mL); MBC99.5 (Enterobacter cloacae [28]): 37.2 ×10⁻² umol/ml; MBC99.5 (Micrococcus flavus [30]): 37.2 ×10⁻² umol/ml; MIC (Staphylococcus aureus [31]): 248 µM (≈ 86.7 µg/mL); MBC99.5 (Bacillus cereus [32]): 37.2 ×10⁻² umol/ml
